Experimental data: US20210254056A1, “IDENTIFICATION AND TARGETED MODULATION OF GENE SIGNALING NETWORKS” (CAMP4 THERAPEUTICS CORPORATION, priority 2017, published 2021)

Test system: hepatocytes
Experiment: RNA-seq of hepatocytes treated with Phase III failure compounds
Conditions: hepatocytes
Experimental: RNA-seq was performed to determine the effects of the compounds on hepatocytes.
Significance was determined by the criteria of FPKM≥0.5, a log 2(fold-change)≥1, and a […].

CCC(CC)[C@H](NC(C)=O)[C@@H]1[C@H](O)[C@@H](C(=O)O)C[C@H]1NC(=N)N.O.O.O [peramivir (trihydrate), peramivir]
RNA-seq results: DOLK expression (gene DOLK): 0.33
RNA-seq results, DPM3 expression (gene DPM3): −0.11
RNA-seq results: DPM3 expression (gene DPM3): 0.68
RNA-seq results, DPYD expression (gene DPYD): −0.21
RNA-seq results: DPYD expression (gene DPYD): −0.43
RNA-seq results, DPYS expression (gene DPYS): −0.01
RNA-seq results: DPYS expression (gene DPYS): −0.27
RNA-seq results, EARS2 expression (gene EARS2): 0.04
RNA-seq results: EARS2 expression (gene EARS2): −0.01
RNA-seq results, EDA expression (gene EDA): −0.03
RNA-seq results: EDA expression (gene EDA): 0.3
RNA-seq results, EHHADH expression (gene EHHADH): −0.10
RNA-seq results: EHHADH expression (gene EHHADH): −0.3
RNA-seq results, ELAC2 expression (gene ELAC2): −0.15
RNA-seq results: ELAC2 expression (gene ELAC2): −0.13
RNA-seq results, ENO3 expression (gene ENO3): 0.30
RNA-seq results: ENO3 expression (gene ENO3): −0.12
RNA-seq results, ENPP1 expression (gene ENPP1): −0.28
RNA-seq results: ENPP1 expression (gene ENPP1): −0.21
RNA-seq results, EPG5 expression (gene EPG5): 0.13
RNA-seq results: EPG5 expression (gene EPG5): 0
RNA-seq results, EPHX1 expression (gene EPHX1): −0.26
RNA-seq results: EPHX1 expression (gene EPHX1): 0.16
RNA-seq results, ERCC4 expression (gene ERCC4): −0.23
RNA-seq results: ERCC4 expression (gene ERCC4): −0.18
RNA-seq results, ERCC6 expression (gene ERCC6): 0.05
RNA-seq results: ERCC6 expression (gene ERCC6): −0.09
RNA-seq results, ETFB expression (gene ETFB): 0.23
RNA-seq results: ETFB expression (gene ETFB): 0.14
RNA-seq results, ETHE1 expression (gene ETHE1): 0.31
RNA-seq results: ETHE1 expression (gene ETHE1): 0.31
RNA-seq results, F2 expression (gene F2): 0.11
RNA-seq results: F2 expression (gene F2): 0.31
RNA-seq results, F2RL1 expression (gene F2RL1): −0.53
RNA-seq results: F2RL1 expression (gene F2RL1): 0.01
RNA-seq results, F5 expression (gene F5): −0.08
RNA-seq results: F5 expression (gene F5): −0.44
RNA-seq results, F9 expression (gene F9): −0.53
RNA-seq results: F9 expression (gene F9): −0.17
RNA-seq results, FABP1 expression (gene FABP1): 0.73
RNA-seq results: FABP1 expression (gene FABP1): −0.05
RNA-seq results, FADD expression (gene FADD): −0.14
RNA-seq results: FADD expression (gene FADD): 0.13
RNA-seq results, FAM111A expression (gene FAM111A): −0.08
RNA-seq results: FAM111A expression (gene FAM111A): −0.05
RNA-seq results, FAM111B expression (gene FAM111B): 0.11
RNA-seq results: FAM111B expression (gene FAM111B): −0.44
RNA-seq results, FAN1 expression (gene FAN1): −0.06
RNA-seq results: FAN1 expression (gene FAN1): −0.14
RNA-seq results, FARS2 expression (gene FARS2): −0.22
RNA-seq results: FARS2 expression (gene FARS2): −0.04
RNA-seq results, FASLG expression (gene FASLG): 1.15
RNA-seq results: FASLG expression (gene FASLG): −0.66
RNA-seq results, FGA expression (gene FGA): −0.25
RNA-seq results: FGA expression (gene FGA): −0.37
RNA-seq results, FGD1 expression (gene FGD1): −0.25
RNA-seq results: FGD1 expression (gene FGD1): 0.14
RNA-seq results, FGFR2 expression (gene FGFR2): −0.13
RNA-seq results: FGFR2 expression (gene FGFR2): −0.42
RNA-seq results, FIG4 expression (gene FIG4): −0.30
RNA-seq results: FIG4 expression (gene FIG4): 0.3
RNA-seq results, FIS1 expression (gene FIS1): 0.44
RNA-seq results: FIS1 expression (gene FIS1): 0.25
RNA-seq results, FTCD expression (gene FTCD): 0.58
RNA-seq results: FTCD expression (gene FTCD): 0.43
RNA-seq results, FTH1 expression (gene FTH1): −0.04
RNA-seq results: FTH1 expression (gene FTH1): 0.7
RNA-seq results, FUCA1 expression (gene FUCA1): −0.23
RNA-seq results: FUCA1 expression (gene FUCA1): 0.07
RNA-seq results, FXN expression (gene FXN): −0.69
RNA-seq results: FXN expression (gene FXN): 0.12
RNA-seq results, G6PC3 expression (gene G6PC3): 0.06
RNA-seq results: G6PC3 expression (gene G6PC3): 0.29
RNA-seq results, G6PC expression (gene G6PC): 0.23
RNA-seq results: G6PC expression (gene G6PC): 0.01
RNA-seq results, G6PD expression (gene G6PD): 0.08
RNA-seq results: G6PD expression (gene G6PD): 0.59
RNA-seq results, GALK1 expression (gene GALK1): 0.18
RNA-seq results: GALK1 expression (gene GALK1): 0.34
RNA-seq results, GALK2 expression (gene GALK2): −0.13
RNA-seq results: GALK2 expression (gene GALK2): −0.11
RNA-seq results, GALT expression (gene GALT): 0.15
RNA-seq results: GALT expression (gene GALT): 0.26
RNA-seq results, GATA6 expression (gene GATA6): −0.08
RNA-seq results: GATA6 expression (gene GATA6): −0.02
RNA-seq results, GATM expression (gene GATM): −0.37
RNA-seq results: GATM expression (gene GATM): −0.37
RNA-seq results, GBA expression (gene GBA): −0.19
RNA-seq results: GBA expression (gene GBA): 0.27
RNA-seq results, GBE1 expression (gene GBE1): −0.20
RNA-seq results: GBE1 expression (gene GBE1): −0.08
RNA-seq results, GCH1 expression (gene GCH1): −0.27
RNA-seq results: GCH1 expression (gene GCH1): −0.25
RNA-seq results, GCKR expression (gene GCKR): 0.29
RNA-seq results: GCKR expression (gene GCKR): 0.32
RNA-seq results, GCLC expression (gene GCLC): −0.18
RNA-seq results: GCLC expression (gene GCLC): −0.14
RNA-seq results, GGCX expression (gene GGCX): 0.10
RNA-seq results: GGCX expression (gene GGCX): −0.22
RNA-seq results, GHR expression (gene GHR): −0.27
RNA-seq results: GHR expression (gene GHR): −0.6
RNA-seq results, GJB2 expression (gene GJB2): −0.37
RNA-seq results: GJB2 expression (gene GJB2): 0.1
RNA-seq results, GLDC expression (gene GLDC): 0.02
RNA-seq results: GLDC expression (gene GLDC): −0.33
RNA-seq results, GLIS3 expression (gene GLIS3): −0.13
RNA-seq results: GLIS3 expression (gene GLIS3): −0.41
RNA-seq results, GLS2 expression (gene GLS2): −0.24
RNA-seq results: GLS2 expression (gene GLS2): −0.06
RNA-seq results, GLYCTK expression (gene GLYCTK): 0.32
RNA-seq results: GLYCTK expression (gene GLYCTK): 0.43
RNA-seq results, GNE expression (gene GNE): −0.21
RNA-seq results: GNE expression (gene GNE): −0.11
RNA-seq results, GNPTAB expression (gene GNPTAB): −0.49
RNA-seq results: GNPTAB expression (gene GNPTAB): −0.13
RNA-seq results, GOSH expression (gene GOSH): −0.17
RNA-seq results: GOSH expression (gene GOSH): 0.44
RNA-seq results, GPC3 expression (gene GPC3): −0.45
RNA-seq results: GPC3 expression (gene GPC3): 0.06
